For orientation: IC50 means the concentration that gives 50% inhibition. Lower therefore signals greater potency in that assay. Usually CC50 stands for the concentration giving 50% cytotoxicity. Low readings indicate greater toxicity to the cells, high ones lower toxicity to the cells.

Data set [1] in a line: Selectivity index, ratio of CC50 for human AC10 cells to IC50 for human HCT116 cells. The note with it: AC10 cells (CC50) and HCT116 cells (IC50). The format is toxicity.
Data set [2] can be described thus: Selectivity index, ratio of CC50 for mouse TAMH cells to IC50 for human HCT116 cells. It counts as toxicity. The note with it: TAMH cells (CC50) and HCT116 cells (IC50).
Data set [3] can be described thus: Selectivity index, ratio of CC50 for human AC10 cells to IC50 for human PC3 cells. It counts as toxicity. The note with it: AC10 cells (CC50) and PC3 cells (IC50).
Data set [4] in a line: Selectivity index, ratio of CC50 for human AC10 cells to IC50 for human MDA-MB-231 cells. It counts as toxicity. The note with it: AC10 cells (CC50) and MDA-MB-231 cells (IC50).
Data set [5] addresses Tyrosine-protein kinase JAK2 (Homo sapiens, UniProt O60674). The experiment in a line: Inhibition of human JAK2 using poly(Glu:Tyr)(4:1) as substrate preincubated for 20 mins followed by [gamma33P]ATP addition measured after 120 mins by ion exchange filter paper method.
Data set [6] can be described thus: Selectivity index, ratio of CC50 for mouse TAMH cells to IC50 for human MCF7 cells. The format is toxicity. Conditions: TAMH cells (CC50) and MCF7 cells (IC50).
The target of data set [7] is T1, Protein deacetylase HDAC6 (Homo sapiens, UniProt Q9UBN7).
T1 sequence (Q9UBN7 whole entry): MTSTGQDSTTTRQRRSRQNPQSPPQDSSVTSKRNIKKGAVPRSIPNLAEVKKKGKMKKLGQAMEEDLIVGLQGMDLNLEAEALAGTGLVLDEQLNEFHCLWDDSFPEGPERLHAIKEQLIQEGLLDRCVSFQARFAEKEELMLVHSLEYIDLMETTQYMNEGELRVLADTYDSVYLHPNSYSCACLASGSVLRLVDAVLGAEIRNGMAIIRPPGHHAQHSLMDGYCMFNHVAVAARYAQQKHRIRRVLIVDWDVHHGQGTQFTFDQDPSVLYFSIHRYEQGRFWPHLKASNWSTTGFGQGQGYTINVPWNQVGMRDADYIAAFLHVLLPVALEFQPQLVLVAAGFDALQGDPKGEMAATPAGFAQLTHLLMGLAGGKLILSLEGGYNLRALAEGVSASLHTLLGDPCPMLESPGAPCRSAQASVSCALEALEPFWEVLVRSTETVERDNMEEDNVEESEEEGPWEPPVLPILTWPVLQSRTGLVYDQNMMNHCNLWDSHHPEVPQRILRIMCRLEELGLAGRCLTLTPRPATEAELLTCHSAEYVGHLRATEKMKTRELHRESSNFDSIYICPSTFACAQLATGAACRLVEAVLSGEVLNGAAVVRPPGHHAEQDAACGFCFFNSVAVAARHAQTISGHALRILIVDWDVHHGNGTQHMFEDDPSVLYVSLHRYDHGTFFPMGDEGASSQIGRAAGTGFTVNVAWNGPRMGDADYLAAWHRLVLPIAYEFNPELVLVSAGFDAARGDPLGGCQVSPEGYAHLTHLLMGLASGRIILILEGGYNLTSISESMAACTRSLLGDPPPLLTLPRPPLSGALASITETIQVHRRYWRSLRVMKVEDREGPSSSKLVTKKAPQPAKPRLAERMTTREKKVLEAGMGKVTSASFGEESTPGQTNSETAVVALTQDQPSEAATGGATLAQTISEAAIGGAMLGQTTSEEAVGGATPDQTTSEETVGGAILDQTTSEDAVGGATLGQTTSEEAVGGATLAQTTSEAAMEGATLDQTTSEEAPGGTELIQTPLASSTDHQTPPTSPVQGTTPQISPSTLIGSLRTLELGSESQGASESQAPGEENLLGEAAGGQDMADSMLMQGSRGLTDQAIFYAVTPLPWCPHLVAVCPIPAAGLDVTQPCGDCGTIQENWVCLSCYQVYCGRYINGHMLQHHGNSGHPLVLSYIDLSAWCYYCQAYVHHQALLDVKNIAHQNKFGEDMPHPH
The experiment in a line: Inhibition of HDAC6 (unknown origin) using Arg-His-Lys-Lys(Ac) as substrate preincubated with enzyme followed by substrate addition for 2 hrs and measured for 1.5 hrs at 15 mins time interval by fluorescence assay.

Data set [8] is described as follows: Selectivity index, ratio of CC50 for mouse TAMH cells to IC50 for human MDA-MB-231 cells. It counts as toxicity. Conditions: TAMH cells (CC50) and MDA-MB-231 cells (IC50).
Data set [9] concerns the target Histone deacetylase 1 (Homo sapiens, UniProt Q13547). The experiment in a line: Inhibition of HDAC1 (unknown origin) using Arg-His-Lys-Lys(Ac) as substrate preincubated with enzyme followed by substrate addition for 2 hrs and measured for 1.5 hrs at 15 mins time interval by fluorescence assay.
Data set [10] in a line: Selectivity index, ratio of CC50 for mouse TAMH cells to IC50 for human PC3 cells. It counts as toxicity. The note with it: TAMH cells (CC50) and PC3 cells (IC50).
Data set [11] has as its system HCT-116. The experiment in a line: Antiproliferative activity against human HCT116 cells after 72 hrs by MTT assay. It counts as functional, cell-based. Conditions: HCT-116, 72 h. (Tetrazolium dyes change colour on reduction, which living cells bring about.)
A short description of data set [12]: Selectivity index, ratio of CC50 for human AC10 cells to IC50 for human MCF7 cells. The format is toxicity. Conditions: AC10 cells (CC50) and MCF7 cells (IC50).
Data set [13] can be described thus: Antiproliferative activity against mouse TAMH cells after 72 hrs by MTT assay. It counts as cell-based.
Data set [14] has as its system MCF7. The data set is described as follows: Antiproliferative activity against human MCF7 cells after 72 hrs by MTT assay. The format is functional, cell-based. The note with it: MCF7, 72 h.
A short description of data set [15]: Antiproliferative activity against human AC10 cells after 72 hrs by MTT assay. The format is cell-based.
The test system of data set [16] is PC-3. The experiment in a line: Antiproliferative activity against human PC3 cells after 72 hrs by MTT assay. It counts as functional, cell-based. Conditions: PC-3, 72 h.
For data set [17], the system named is MDA-MB-231. The experiment in a line: Antiproliferative activity against human MDA-MB-231 cells after 72 hrs by MTT assay. The format is functional, cell-based. The note with it: MDA-MB-231, 72 h.

Sequence of Histone deacetylase 1 (Q13547 whole entry): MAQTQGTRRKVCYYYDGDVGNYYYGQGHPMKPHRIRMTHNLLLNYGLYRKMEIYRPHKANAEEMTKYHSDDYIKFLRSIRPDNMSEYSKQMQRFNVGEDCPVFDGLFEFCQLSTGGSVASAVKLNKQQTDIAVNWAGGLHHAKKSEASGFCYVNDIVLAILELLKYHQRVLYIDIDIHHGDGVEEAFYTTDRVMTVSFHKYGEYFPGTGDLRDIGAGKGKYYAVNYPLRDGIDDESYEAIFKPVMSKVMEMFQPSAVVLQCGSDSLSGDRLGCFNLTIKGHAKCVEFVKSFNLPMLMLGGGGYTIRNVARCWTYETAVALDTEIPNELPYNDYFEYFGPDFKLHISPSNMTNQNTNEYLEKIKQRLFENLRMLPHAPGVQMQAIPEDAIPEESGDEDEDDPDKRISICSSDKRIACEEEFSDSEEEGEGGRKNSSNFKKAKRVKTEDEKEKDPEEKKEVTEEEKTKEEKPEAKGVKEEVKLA
Sequence of Tyrosine-protein kinase JAK2 (O60674 whole entry): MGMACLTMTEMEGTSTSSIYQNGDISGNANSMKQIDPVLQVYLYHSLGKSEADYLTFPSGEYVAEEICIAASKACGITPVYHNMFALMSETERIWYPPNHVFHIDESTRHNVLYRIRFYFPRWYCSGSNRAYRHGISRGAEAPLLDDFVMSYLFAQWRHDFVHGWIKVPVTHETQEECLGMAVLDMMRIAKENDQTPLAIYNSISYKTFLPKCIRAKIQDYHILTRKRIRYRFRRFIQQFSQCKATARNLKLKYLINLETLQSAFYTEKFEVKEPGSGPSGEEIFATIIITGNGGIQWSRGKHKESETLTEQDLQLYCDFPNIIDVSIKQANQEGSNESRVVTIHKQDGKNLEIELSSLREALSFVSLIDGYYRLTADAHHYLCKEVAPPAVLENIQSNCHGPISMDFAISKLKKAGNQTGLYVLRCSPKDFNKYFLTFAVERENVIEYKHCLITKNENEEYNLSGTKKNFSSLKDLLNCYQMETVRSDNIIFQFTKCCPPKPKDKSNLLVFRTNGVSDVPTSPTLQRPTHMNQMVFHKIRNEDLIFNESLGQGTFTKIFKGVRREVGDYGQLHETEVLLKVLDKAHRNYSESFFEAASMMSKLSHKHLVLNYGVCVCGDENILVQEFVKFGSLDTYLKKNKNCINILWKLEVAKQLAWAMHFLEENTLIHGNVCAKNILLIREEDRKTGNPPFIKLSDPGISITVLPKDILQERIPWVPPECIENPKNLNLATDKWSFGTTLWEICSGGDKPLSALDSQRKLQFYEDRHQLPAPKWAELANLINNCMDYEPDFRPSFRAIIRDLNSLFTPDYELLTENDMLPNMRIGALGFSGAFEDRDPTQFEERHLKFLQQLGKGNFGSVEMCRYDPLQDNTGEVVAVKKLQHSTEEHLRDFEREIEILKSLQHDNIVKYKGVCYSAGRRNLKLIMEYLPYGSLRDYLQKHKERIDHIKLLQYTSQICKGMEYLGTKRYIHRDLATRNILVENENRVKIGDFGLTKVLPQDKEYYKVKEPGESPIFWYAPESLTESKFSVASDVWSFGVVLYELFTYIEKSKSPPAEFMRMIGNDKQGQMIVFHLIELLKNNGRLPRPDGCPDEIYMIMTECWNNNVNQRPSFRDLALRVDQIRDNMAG

For the compound `CC(=O)Nc1ccc(-c2nc(Nc3ccc(OCCCCCC(=O)NO)cc3)ncc2C)cc1`, the selectivity ratio was 18.4 in data set [1]; 6.07 in [2]; 7.02 in data set [3]; 16 in data set [4]; 2.35 in data set [6]; 5.26 in data set [8]. For the same compound, the selectivity ratio in [10] turned out to be 2.32; in data set [12], 7.14. Besides, the IC50 in [5] was 25.6 nM; in data set [7], 3.5 nM; in data set [9] it was 260 nM; in [11] it was 920 nM; in data set [14], 2370 nM; in [16] it was 2410 nM. For the same compound, the IC50 in [17] is 1060 nM. Besides, the values for the CC50 at 72 h in data set [13] and in data set [15] were 5580 nM and 16900 nM, respectively.

As to `CN1CCN(CC(=O)Nc2ccc(-c3ccnc(Nc4cccc(OCCCCCCC(=O)NO)c4)n3)cc2)CC1`, the selectivity ratio turned out to be 8.14 in [1]; 6.64 in data set [2]; 5.45 in data set [3]; 9.65 in data set [4]; 3.87 in [6]; 7.86 in [8]. In addition, the selectivity ratio was 4.44 in [10] and 4.75 in [12]. Also, the IC50 in [5] was 109 nM; in [7] it was 6.8 nM; in data set [9], 348 nM; in data set [11], 770 nM; in data set [14], 1320 nM; in data set [16] it was 1150 nM. In addition, the IC50 in data set [17] turned out to be 650 nM. The half-maximal cytotoxic concentration (CC50) at 72 h in data set [13] turned out to be 5110 nM; in [15], 6270 nM.

On to `Cc1cnc(Nc2ccc(N3CCOCC3)cc2)nc1-c1ccc(NC(=O)CCCCCCC(=O)NO)cc1`, for which the IC50 in [7] was determined as 3.7 nM; in [9], 289 nM; in data set [11] it was 2530 nM; in data set [14], 2470 nM; in data set [16] it was 1740 nM; in data set [17], 1230 nM. For the same compound, the CC50 at 72 h stood at 7470 nM in data set [13] and 6060 nM in [15].

Turning to `O=C(CCCCCCC(=O)Nc1ccc(-c2ccnc(Nc3ccc(N4CCCCC4)cc3)n2)cc1)NO`, the IC50 was determined as 23 nM in data set [7]; 934 nM in [9]; 1070 nM in [11]; 1890 nM in data set [14]; 5580 nM in data set [16]; 2830 nM in [17]. Moreover, the CC50 at 72 h in data set [13] came to 12900 nM; in [15], 11700 nM.

With `CC(=O)Nc1ccc(-c2ccnc(Nc3cccc(N4CCOCC4)c3)n2)cc1`, the IC50 in data set [5] worked out at 19.6 nM.

For `CC(=O)Nc1ccc(-c2ccnc(Nc3ccc(N4CCN(C)CC4)cc3)n2)cc1`, the IC50 in [5] turned out to be 7.9 nM.

Consider `CC(=O)Nc1ccc(-c2ccnc(Nc3ccc(NC(=O)CCCCC(=O)NO)cc3)n2)cc1`, for which the IC50 in data set [5] came out at 58.3 nM; in [7] it was 117 nM; in data set [9], 3350 nM; in data set [11] it was 65600 nM; in data set [14], 43400 nM; in [16], 47300 nM. This compound also registered an IC50 in data set [17] of 32100 nM.

As for `CN1CCN(CC(=O)Nc2ccc(-c3ccnc(Nc4ccc(OCCCCCCC(=O)NO)cc4)n3)cc2)CC1`, the selectivity ratio in data set [1] was 2.43; in [2] it was 4.78; in [3], 1; in data set [4], 1.06; in [6], 1.67; in data set [8] it was 2.08. Also, the selectivity ratio in [10] worked out at 1.97; in data set [12], 0.85. Further, the IC50 in data set [5] is 95.5 nM; in data set [7] it was 6.1 nM; in [9], 142 nM; in data set [11], 1690 nM; in data set [14], 4840 nM; in data set [16], 4090 nM. The 50% inhibitory concentration (IC50) in data set [17] was determined as 3880 nM. The CC50 at 72 h in data set [13] worked out at 8070 nM; in data set [15], 4100 nM.

As to `Cc1cnc(Nc2ccc(N3CCN(C)CC3)cc2)nc1-c1ccc(NC(=O)CCCCCCC(=O)NO)cc1`, the selectivity ratio in data set [1] was 3.54; in data set [2], 7.12; in data set [3] it was 3.58; in [4], 3.84; in data set [6] it was 5.75; in data set [8] it was 7.71. Further, the values for the selectivity ratio in data set [10] and in data set [12] were 7.19 and 2.86, respectively. Also, the half-maximal inhibitory concentration (IC50) stood at 4.3 nM in data set [5]; 2.1 nM in [7]; 139 nM in data set [9]; 1050 nM in [11]; 1300 nM in data set [14]; 1040 nM in data set [16]. In data set [17], inhibition was half-maximal at 970 nM (IC50). For the same compound, the CC50 at 72 h in data set [13] was 7480 nM; in data set [15], 3720 nM.

Take `O=C(CCCCCCC(=O)Nc1ccccc1)NO` [VORINOSTAT]: half-maximal inhibition in data set [14] (IC50) was put at 810 nM.

For the compound `COC(=O)CCCCCCOc1ccc(Nc2nccc(-c3ccc(NC(C)=O)cc3)n2)cc1`, the IC50 in [5] was 239 nM; in data set [7] it was 3150 nM; in [9] it was more than 10000 nM.

`O=C(CCCCCCC(=O)Nc1ccc(-c2ccnc(Nc3cccc(N4CCCCC4)c3)n2)cc1)NO`: the selectivity ratio in data set [1] worked out at 3.2; in data set [2], 2.81; in data set [3] it was 7.12; in [4], 4.02; in data set [6], 4.42; in [8], 3.53. The selectivity ratio in data set [10] was found to be 6.25; in [12] it was 5.04. The figures for the IC50 in data set [5], in data set [7] and in data set [9] were 6.6 nM, 9 nM and 179 nM, respectively. In addition, the 50% cytotoxic concentration (CC50) at 72 h in data set [13] was 4690 nM; in data set [15] it was 5340 nM.

Consider `CC(=O)Nc1ccc(-c2ccnc(Nc3ccc(N4CCCCC4)cc3)n2)cc1`, for which the midpoint of inhibition in [5], the IC50, lay at 2.9 nM.

As to `O=C(CCCCCCOc1ccc2cc1COC/C=C/COCc1cccc(c1)-c1ccnc(n1)N2)NO`, in data set [16], half-maximal inhibition (IC50) was put at 1700 nM.

For `CC(=O)Nc1ccc(-c2ccnc(Nc3cccc(N4CCCCC4)c3)n2)cc1`, 13.8 nM corresponded to half-maximal inhibition in data set [5] (IC50).

Regarding `O=C(Nc1ccc(-c2ccnc(Nc3ccc(N4CCOCC4)cc3)n2)cc1)[C@@H]1CCCN1`, the IC50 in data set [11] came out at 7340 nM; in data set [14] it was 27200 nM; in [16], 14900 nM; in data set [17] it was 9670 nM.

The values are drawn from ChEMBL document CHEMBL4265943, “Design and synthesis of potent dual inhibitors of JAK2 and HDAC based on fusing the pharmacophores of XL019 and vorinostat” (Eur J Med Chem, 2018).
